Holding throughout (assay type): physicochemical
Data set [1] can be described thus: Reduction potential of model compounds. Particulars: pH 7 Buffer solution versus Normal Hydrogen Electrode (NHE). Here is the method: The redox potential of the solution is measured by open cell potential. […] Cyclic voltammetry can be used to identify the various oxidation states and redox potentials for future manipulation of redox state. Additionally, FIG. 5 in the present application provides a working example of this assay by depicting the cyclic voltammetry trace for hypericin. As shown, there are multiple peaks in the range of 0-2 volts, that are the result of the different redox states of hypericin. This is manipulated according to the preferred or desired redox state to be achieved.
Once the redox potential of the preparation is measured, the redox state may be adjusted to the preferred or desired condition at any stage as previously described.
The multiple oxidation states of the molecule of interest can be determined electrochemically by cyclic voltammetry. The first phase involves applying an excessive positive potential (oxidizing potential) and oxidizing all the species present to one form. Then the applied voltage is stepped down in increments while monitoring current. When the mid-point redox potential of a reaction is approached, molecules begin to be reduced, causing current through the circuit. After returning all molecules to the reduced form, the voltage is increased and the redox potentials of the reaction(s) are recorded. […]

The nature of data set [2]: Electrochemical oxidation of EGCG solutions at pH 6.0, followed by UV-visible absorbance and open circuit potential. The text has this: An electrochemical cell was fabricated using a fine porosity glass frit in 1″ diameter glass tubing. The electrochemical cell houses the counter electrode and keeps the Ag/AgCl reference electrode and platinum working electrode separate from the counter electrode. This addition to the system allowed the preparation of bulk solution. The working electrode and reference electrode compartment was continuously stirred using a small stir bar and a magnetic stirrer to minimize gradient effects at the working electrode.
The EGCG solutions were oxidized using a positive potential to a visual end point. UV-visible spectral data were collected during these experiments, including the absorbance at 270 nm and 320 nm, corresponding to the phenol and quinone forms of EGCG, respectively. In addition, the open cell potential was recorded as experiments progressed. The active redox potentials and experimental endpoints were determined based on current and visual color changes.
Due to solution evaporation over time, the ratio of absorbance at 320 nm divided by the absorbance at 270 nm was determined in order to account for overall absorption increases. […] In addition, the visual change in solution color from clear to yellow and pink was also monitored as an indicator of degree of oxidation.
Stirred EGCG solutions in 0.1 M phosphate buffer with 0.1 M KCl at pH 6.0 were monitored. […]

Data set [3] in a line: Stability of electrochemically oxidized EGCG solutions after pH modification (UV-visible spectra). The text has this: Solutions were pH modified following electrochemical oxidation to observe stability. […] These samples were open to air, and no other precautions were taken to prevent oxidation by atmospheric oxygen.

As for `O=C(O)/C=C/c1ccc(O)c(O)c1` [Caffeic Acid], the “Reduction Potential” value in data set [1] is given as 120 mV.
For `O=C(O[C@@H]1Cc2c(O)cc(O)cc2O[C@@H]1c1cc(O)c(O)c(O)c1)c1cc(O)c(O)c(O)c1` [Epigallocatechin gallate, epigallocatechin gallate], the “change in absorbance at 270 and 320 nm” value in data set [2] (after seven hours, 800 mV solution and control solution) is reported as “no change”. The “stability of electrochemically-induced changes (320 nm absorbance over time)” value in data set [2] (solutions left with no current after 68 h, until 120 h) was “stable for over two days”. The “stability of pH-modified sample after electrochemical oxidation” value in data set [3] (EGCG solution pH 6.26, 1500 mV for 11.4 hours, then pH 8.43, open to air, after 7 days) was “relatively stable after 7 days”. For the same molecule, in data set [3] (EGCG solution pH 6.26, 1500 mV for 11.4 hours, then pH modified, open to air, after one day), the “stability of pH-modified samples after electrochemical oxidation” value is “stable after one day”. In addition, the “oxidation of control samples” value in data set [3] (control samples at pH 6.26, no potential) is given as “did not oxidize”.
As for `O=c1c(O)c(-c2ccc(O)c(O)c2)oc2cc(O)cc(O)c12` [Quercitin], the “Reduction Potential” value in data set [1] is recorded as 120 mV.

The record behind these values is US20090023804A1, “ELECTROCHEMICAL METHODS FOR REDOX CONTROL TO PRESERVE, STABILIZE AND ACTIVATE COMPOUNDS” (priority 2006, published 2009).
